The text below walks through data of patent US8916577B2, “Tricyclic derivatives, process for their preparation and their use as kinase inhibitors” (Nerviano Medical Sciences S.R.L., priority 2011, dated 2014).

The IC50 is the midpoint of a concentration-inhibition curve. The low end stands for greater potency, the high end for weaker potency.

The assay addresses MPS1 (Homo sapiens (Human), UniProt P33981). Put plainly: Biochemical assay for inhibitors of MPS1 kinase activity (33P-ATP trans-phosphorylation, Dowex). The conditions noted are these: 5 nM MPS1, 15 microM ATP, P38-β-tide 200 microM. The text has this: Cloning, Expression and Purification of Recombinant MPS1 Full Length Protein.
MPS1 full length (corresponding to residues 2-857 of the full length sequence, see Swiss-Prot accession number P33981) was PCR amplified from the full-length human MPS1 gene present in house as clone pGEX4t_MPS1.
Baculoviruses were generated by cotransfecting Sf9 insect cells with the expression vector and the viral DNA using the BaculoGold® transfection kit (Pharmingen). Viral supernatant was recovered after 5 days and subjected to 3 rounds of amplification to increase viral titer. Recombinant protein was produced by infecting High5 insect cells. After 72 hours of infection at 21° C., cells were recovered, pelletted and freezed at −80° C. For purification of recombinant protein, pellet was thawed, resuspended in lysis buffer (PBS, NaCl 150 mM, Glycerol 10%, CHAPS 0.1%, DTT 20 mM, protease and phosphatase inhibitors) and lysed by Gaulin. Lysate was cleared by centrifugation and loaded on a GST affinity column. After extensive wash, recombinant protein was cleaved by a specific protease and eluted by incubation.
To get a fully activated enzyme, the protein was then subjected to auto-phosphorylation in presence of ATP 1 mM at 25° C. for 2 hours in kinase buffer (Hepes pH7.5 50 mM, MgCl2 2.5 mM, MnCl2 1 mM, DTT 1 mM, phosphatase inhibitors); ATP was then removed whit a desalting column.
Biochemical Assay for Inhibitors of MPS1 Kinase Activity
The inhibitory activity of putative kinase inhibitors and the potency of selected compounds were determined using a trans-phosphorylation assay.
Specific peptide or protein substrates are trans-phosphorylated by their specific ser-thr or tyr kinase in the presence of ATP traced with ^33P-γ-ATP, and in the presence of their own optimal buffer and cofactors.
At the end of the phosphorylation reaction, more than 98% unlabeled ATP and radioactive ATP is captured by an excess of the ion exchange dowex resin; the resin then settles down to the bottom of the reaction plate by gravity.
Supernatant is subsequently withdrawn and transferred into a counting plate, then evaluated by P-counting.
The buffer for MPS1 assay was composed of HEPES 50 mM, at pH 7.5, with 2.5 mM MgCl2, 1 mM MnCl2, 1 mM DTT, 3 microM Na3VO4, 2 mM P-glycerophosphate and 0.2 mg/mL BSA.
The assay was run with a final concentration MPS1 of 5 nM, in the presence of 15 microM ATP and 1.5 nM ^33P-γ-ATP; the substrate was P38-β-tide, used at 200 microM.
The test mix consisted of:
1) 3× Enzyme mix (done in Kinase Buffer 3×), 5 microL/well
2) 3× substrate and ATP mix (done in ddH2O), together with ^33P-γ-ATP, 5 microL/well
3) 3× test compounds (diluted into ddH2O—3% DMSO)—5 microL/well
a) for percent inhibition studies (HTS), individual dilution plates at 1 mM are diluted at a 3× concentration (30 microM) in ddH2O (3% DMSO=final concentration) using a Beckman NX automated pipetting platform. The same instrument is used for distributing the diluted mother plates into the test plates. b) for IC50 determination (KSS platform), 100 μl of each compound at 1 mM in 100% DMSO are transferred from the original plate into the first column of another 96 well plate (A1 to G1); well H1 is left empty for the internal standard inhibitor, usually staurosporine.
An automated station for serial dilutions (Biomek FX, Beckman) is used for producing 1:3 dilutions in 100% DMSO, from line A1 to A10, and for all the seven compounds in the column. Moreover, 4-5 copies of daughter plates are prepared by reformatting 5 microL of this first set of 100% DMSO dilution plates into 384 deep well-plates: one copy of the daughter plates with the serial dilutions of test compounds will be thaw the day of the experiments, reconstituted at a 3× concentration with water and used in the IC50 determination assays. In a standard experiment, the highest concentration (3×) of all compounds is 30 microM, while the lowest one is 1.5 nM. […]

Counter-ions that a name gives are not always drawn.

MPS1, sequence (P33981 2-857): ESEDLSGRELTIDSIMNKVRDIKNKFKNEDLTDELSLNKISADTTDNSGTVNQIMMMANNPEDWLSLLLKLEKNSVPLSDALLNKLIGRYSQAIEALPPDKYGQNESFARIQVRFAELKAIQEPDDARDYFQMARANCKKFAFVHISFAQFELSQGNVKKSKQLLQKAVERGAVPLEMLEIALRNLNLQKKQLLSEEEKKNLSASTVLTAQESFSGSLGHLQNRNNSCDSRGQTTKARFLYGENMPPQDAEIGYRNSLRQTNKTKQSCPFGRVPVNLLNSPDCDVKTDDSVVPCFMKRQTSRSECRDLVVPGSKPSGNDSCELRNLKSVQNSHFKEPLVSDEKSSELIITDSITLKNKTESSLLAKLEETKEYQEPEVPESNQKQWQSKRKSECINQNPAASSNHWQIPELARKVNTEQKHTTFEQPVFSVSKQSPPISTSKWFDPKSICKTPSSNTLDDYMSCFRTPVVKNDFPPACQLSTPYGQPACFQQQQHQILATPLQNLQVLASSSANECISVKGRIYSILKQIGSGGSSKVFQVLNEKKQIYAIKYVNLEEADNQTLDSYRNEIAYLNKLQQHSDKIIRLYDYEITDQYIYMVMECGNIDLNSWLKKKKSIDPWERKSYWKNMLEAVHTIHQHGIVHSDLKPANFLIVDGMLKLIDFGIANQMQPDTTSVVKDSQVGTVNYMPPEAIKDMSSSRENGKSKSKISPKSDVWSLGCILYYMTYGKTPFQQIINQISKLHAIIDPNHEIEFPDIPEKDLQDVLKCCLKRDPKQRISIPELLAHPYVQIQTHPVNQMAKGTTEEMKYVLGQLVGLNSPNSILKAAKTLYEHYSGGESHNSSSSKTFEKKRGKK

As for `COc1cc(Br)ccc1Nc1ncc2c(n1)-c1c(c(C(N)=O)nn1C)CCC2` [Compound 1, 9-[(4-bromo-2-methoxyphenyl)amino]-1-methyl-1,4,5,6-tetrahydropyrazolo[4′,3′:6,7]cyclohepta[1,2-d]pyrimidine-3-carboxamide], the IC50 worked out at 421 nM.

For the compound `CCc1cccc(CC)c1NC(=O)c1nn(C)c2c1CCCc1cnc(Nc3ccc(N4CCN(C)CC4)cc3OC)nc1-2` [Compound 4, N-(2,6-diethylphenyl)-9-{[2-methoxy-4-(4-methylpiperazin-1-yl)phenyl]amino}-1-methyl-1,4,5,6-tetrahydropyrazolo[4′,3′:6,7]cyclohepta[1,2-d]pyrimidine-3-carboxamide], the IC50 worked out at 184 nM.

`COc1cc(N2CCN(C)CC2)ccc1Nc1ncc2c(n1)-c1c(c(C(=O)Nc3ccccc3)nn1C)CCC2` [Compound 8, 9-{[2-methoxy-4-(4-methylpiperazin-1-yl)phenyl]amino}-1-methyl-N-phenyl-1,4,5,6-tetrahydropyrazolo[4′,3′:6,7]cyclohepta[1,2-d]pyrimidine-3-carboxamide] yielded an IC50 of 353 nM.

As to `CCc1cccc(C)c1NC(=O)c1nn(C)c2c1CCCc1cnc(Nc3ccc(N4CCN(C)CC4)cc3OC)nc1-2` [Compound 27, N-(2-ethyl-6-methylphenyl)-9-{[2-methoxy-4-(4-methylpiperazin-1-yl)phenyl]amino}-1-methyl-1,4,5,6-tetrahydropyrazolo[4′,3′:6,7]cyclohepta[1,2-d]pyrimidine-3-carboxamide], the IC50 was determined as 189 nM.

`COc1cc(N2CCN(C)CC2)ccc1Nc1ncc2c(n1)-c1c(c(C(=O)NC3CCCCC3)nn1C)CCC2` [Compound 28, N-cyclohexyl-9-{[2-methoxy-4-(4-methylpiperazin-1-yl)phenyl]amino}-1-methyl-1,4,5,6-tetrahydropyrazolo[4′,3′:6,7]cyclohepta[1,2-d]pyrimidine-3-carboxamide] showed an IC50 of 249 nM.

Compound `CNC(=O)c1nn(C)c2c1CCCc1cnc(Nc3ccc(Br)cc3OC)nc1-2` [Compound 32, 9-[(4-bromo-2-methoxyphenyl)amino]-N,1-dimethyl-1,4,5,6-tetrahydropyrazolo[4′,3′:6,7]cyclohepta[1,2-d]pyrimidine-3-carboxamide] had an IC50 of 277 nM.

With `CCc1cccc(CC)c1NC(=O)c1nn(C)c2c1CCCc1cnc(Nc3ccc(C(=O)NC4CCN(C)CC4)cc3OC)nc1-2` [Compound 35, N-(2,6-diethylphenyl)-9-({2-methoxy-4-[(1-methylpiperidin-4-yl)carbamoyl]phenyl}amino)-1-methyl-1,4,5,6-tetrahydropyrazolo[4′,3′:6,7]cyclohepta[1,2-d]pyrimidine-3-carboxamide], the half-maximal inhibitory concentration (IC50) turned out to be 66 nM.

With `CCc1cccc(CC)c1NC(=O)c1nn(C)c2c1CCCc1cnc(Nc3ccc(C(=O)N4CCCN(C)CC4)cc3OC(F)(F)F)nc1-2` [Compound 43, N-(2,6-diethylphenyl)-1-methyl-9-({4-[(4-methyl-1,4-diazepan-1-yl)carbonyl]-2-(trifluoromethoxy)phenyl}amino)-1,4,5,6-tetrahydropyrazolo[4′,3′:6,7]cyclohepta[1,2-d]pyrimidine-3-carboxamide], the IC50 came to 199 nM.

Compound `CCc1cccc(CC)c1NC(=O)c1nn(CC(F)(F)F)c2c1CCCc1cnc(Nc3ccc(N4CCN(C)CC4)cc3OC)nc1-2` [Compound 56, N-(2,6-diethylphenyl)-9-{[2-methoxy-4-(4-methylpiperazin-1-yl)phenyl]amino}-1-(2,2,2-trifluoroethyl)-1,4,5,6-tetrahydropyrazolo[4′,3′:6,7]cyclohepta[1,2-d]pyrimidine-3-carboxamide] registered an IC50 of 862 nM.

`CCc1cccc(CC)c1NC(=O)c1nn(CCO)c2c1CCCc1cnc(Nc3ccc(N4CCC(N(C)C)CC4)cc3OC)nc1-2` [Compound 71, N-(2,6-diethylphenyl)-9-({4-[4-(dimethylamino)piperidin-1-yl]-2-methoxyphenyl}amino)-1-(2-hydroxyethyl)-1,4,5,6-tetrahydropyrazolo[4′,3′:6,7]cyclohepta[1,2-d]pyrimidine-3-carboxamide trifluoroacetate]: the half-inhibitory concentration (IC50) worked out at 174 nM.

Compound `CCc1cccc(CC)c1NC(=O)c1c2c(nn1C)-c1nc(Nc3ccc(N4CCN(C)CC4)cc3OC)ncc1CCC2` [Compound 97, N-(2,6-diethylphenyl)-9-{[2-methoxy-4-(4-methylpiperazin-1-yl)phenyl]amino}-2-methyl-2,4,5,6-tetrahydropyrazolo[4′,3′:6,7]cyclohepta[1,2-d]pyrimidine-3-carboxamide] displayed an IC50 of 853 nM.

Consider `CCc1cccc(CC)c1NC(=O)c1noc2c1CCCc1cnc(Nc3ccc(N4CCN(C)CC4)cc3OC)nc1-2` [Compound 99, N-(2,6-diethylphenyl)-9-{[2-methoxy-4-(4-methylpiperazin-1-yl)phenyl]amino}-5,6-dihydro-4H-isoxazolo[4′,5′:6,7]cyclohepta[1,2-d]pyrimidine-3-carboxamide], for which inhibition was half-maximal at 134 nM (IC50).

`CCc1cccc(CC)c1NC(=O)c1onc2c1CCCc1cnc(Nc3ccc(N4CCN(C)CC4)cc3OC)nc1-2` [Compound 101, N-(2,6-diethylphenyl)-9-{[2-methoxy-4-(4-methylpiperazin-1-yl)phenyl]amino}-5,6-dihydro-4H-isoxazolo[4′,3′:6,7]cyclohepta[1,2-d]pyrimidine-3-carboxamide] displayed a half-inhibitory concentration (IC50) of 308 nM.
